From PubChem BioAssay (NCI)
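Five concentrations, 48 hours, 96-well plates. TGI: concentration producing complete growth inhibition.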

Columns and labels:
Experiment in all cases: NCI tumour cell line growth inhibition, 48 h
SK-MEL-5 melanoma = test system: SK-MEL-5 melanoma
MALME-3M melanoma = test system: MALME-3M melanoma
LOX IMVI melanoma = test system: LOX IMVI melanoma
NCI-H23 lung = test system: NCI-H23 lung
K-562 leukemia = test system: K-562 leukemia
OVCAR-8 ovarian = test system: OVCAR-8 ovarian
HCT-15 colon = test system: HCT-15 colon
COLO 205 colon = test system: COLO 205 colon
MDA-MB-231 breast = test system: MDA-MB-231 breast
SW-620 colon = test system: SW-620 colon
PC-3 prostate = test system: PC-3 prostate
HCT-116 colon = test system: HCT-116 colon
BT-549 breast = test system: BT-549 breast
NCI-H522 lung = test system: NCI-H522 lung
HL-60(TB) leukemia = test system: HL-60(TB) leukemia
NCI-H460 lung = test system: NCI-H460 lung
SF-539 CNS = test system: SF-539 CNS
MDA-N = test system: MDA-N
A498 renal = test system: A498 renal
UACC-257 melanoma = test system: UACC-257 melanoma
TK-10 renal = test system: TK-10 renal
HCC-2998 colon = test system: HCC-2998 colon
IGROV1 ovarian = test system: IGROV1 ovarian
MOLT-4 leukemia = test system: MOLT-4 leukemia
SF-268 CNS = test system: SF-268 CNS
SN12C renal = test system: SN12C renal
U251 CNS = test system: U251 CNS
CCRF-CEM leukemia = test system: CCRF-CEM leukemia
RPMI-8226 leukemia = test system: RPMI-8226 leukemia
HS 578T breast = test system: HS 578T breast
SK-MEL-28 melanoma = test system: SK-MEL-28 melanoma
NCI/ADR-RES ovarian = test system: NCI/ADR-RES ovarian
UACC-62 melanoma = test system: UACC-62 melanoma
786-0 renal = test system: 786-0 renal
SK-MEL-2 melanoma = test system: SK-MEL-2 melanoma
NCI-H226 lung = test system: NCI-H226 lung
ACHN renal = test system: ACHN renal
HOP-92 NSCLC = test system: HOP-92 NSCLC
MCF7 breast = test system: MCF7 breast
SR leukemia = test system: SR leukemia
M14 melanoma = test system: M14 melanoma
SF-295 CNS = test system: SF-295 CNS
T-47D breast = test system: T-47D breast
KM12 colon = test system: KM12 colon
A549 NSCLC = test system: A549 NSCLC
EKVX NSCLC = test system: EKVX NSCLC
RXF 393 renal = test system: RXF 393 renal
DU-145 prostate = test system: DU-145 prostate
SNB-75 CNS = test system: SNB-75 CNS
UO-31 renal = test system: UO-31 renal
SNB-19 CNS = test system: SNB-19 CNS
HT29 colon = test system: HT29 colon
CAKI-1 renal = test system: CAKI-1 renal
OVCAR-5 ovarian = test system: OVCAR-5 ovarian
OVCAR-4 ovarian = test system: OVCAR-4 ovarian

## Nc1c2c(nc3ccccc13)CCCCCC2
SK-MEL-5 melanoma
  TGI: 31.3 µM
MALME-3M melanoma
  TGI: 32.6 µM
LOX IMVI melanoma
  TGI: 31.8 µM
NCI-H23 lung
  TGI: > 100 µM
K-562 leukemia
  TGI: 69 µM
OVCAR-8 ovarian
  TGI: > 100 µM
HCT-15 colon
  TGI: > 100 µM
COLO 205 colon
  TGI: 30.6 µM
MDA-MB-231 breast
  TGI: 42.5 µM
SW-620 colon
  TGI: 50.1 µM
PC-3 prostate
  TGI: > 100 µM
HCT-116 colon
  TGI: 64.1 µM
BT-549 breast
  TGI: > 100 µM
NCI-H522 lung
  TGI: 56.3 µM
HL-60(TB) leukemia
  TGI: 31.6 µM
NCI-H460 lung
  TGI: 38.9 µM
SF-539 CNS
  TGI: 32.3 µM
MDA-N
  TGI: 30.4 µM
A498 renal
  TGI: 74 µM
UACC-257 melanoma
  TGI: 31.1 µM
TK-10 renal
  TGI: 35.1 µM
HCC-2998 colon
  TGI: 27.4 µM
IGROV1 ovarian
  TGI: > 100 µM
MOLT-4 leukemia
  TGI: 85 µM
SF-268 CNS
  TGI: > 100 µM
SN12C renal
  TGI: > 100 µM
U251 CNS
  TGI: 80.2 µM
CCRF-CEM leukemia
  TGI: 52.4 µM
RPMI-8226 leukemia
  TGI: 43.8 µM
HS 578T breast
  TGI: > 100 µM
SK-MEL-28 melanoma
  TGI: 30 µM
NCI/ADR-RES ovarian
  TGI: > 100 µM
UACC-62 melanoma
  TGI: 33.7 µM
786-0 renal
  TGI: 30 µM
SK-MEL-2 melanoma
  TGI: 29.2 µM
NCI-H226 lung
  TGI: > 100 µM
ACHN renal
  TGI: 86.3 µM
HOP-92 NSCLC
  TGI: 32.1 µM
MCF7 breast
  TGI: > 100 µM
SR leukemia
  TGI: 38 µM

## CCOC(=O)c1c(N2CCCC2)nsc1Nc1ccccc1
SK-MEL-5 melanoma
  TGI: > 100 µM
M14 melanoma
  TGI: > 100 µM
MALME-3M melanoma
  TGI: > 100 µM
LOX IMVI melanoma
  TGI: > 100 µM
NCI-H23 lung
  TGI: > 100 µM
K-562 leukemia
  TGI: > 100 µM
OVCAR-8 ovarian
  TGI: > 100 µM
SF-295 CNS
  TGI: > 100 µM
T-47D breast
  TGI: > 100 µM
HCT-15 colon
  TGI: > 100 µM
COLO 205 colon
  TGI: > 100 µM
MDA-MB-231 breast
  TGI: > 100 µM
SW-620 colon
  TGI: > 100 µM
KM12 colon
  TGI: > 100 µM
A549 NSCLC
  TGI: > 100 µM
PC-3 prostate
  TGI: > 100 µM
EKVX NSCLC
  TGI: > 100 µM
RXF 393 renal
  TGI: > 100 µM
DU-145 prostate
  TGI: > 100 µM
HCT-116 colon
  TGI: > 100 µM
HL-60(TB) leukemia
  TGI: > 100 µM
NCI-H460 lung
  TGI: > 100 µM
SF-539 CNS
  TGI: > 100 µM
MDA-N
  TGI: > 100 µM
SNB-75 CNS
  TGI: > 100 µM
A498 renal
  TGI: > 100 µM
UACC-257 melanoma
  TGI: > 100 µM
TK-10 renal
  TGI: > 100 µM
HCC-2998 colon
  TGI: > 100 µM
IGROV1 ovarian
  TGI: > 100 µM
UO-31 renal
  TGI: > 100 µM
MOLT-4 leukemia
  TGI: > 100 µM
SF-268 CNS
  TGI: > 100 µM
SN12C renal
  TGI: > 100 µM
CCRF-CEM leukemia
  TGI: > 100 µM
SNB-19 CNS
  TGI: > 100 µM
RPMI-8226 leukemia
  TGI: > 100 µM
HT29 colon
  TGI: > 100 µM
HS 578T breast
  TGI: > 100 µM
SK-MEL-28 melanoma
  TGI: > 100 µM
CAKI-1 renal
  TGI: > 100 µM
OVCAR-5 ovarian
  TGI: > 100 µM
NCI/ADR-RES ovarian
  TGI: > 100 µM
786-0 renal
  TGI: > 100 µM
OVCAR-4 ovarian
  TGI: > 100 µM
SK-MEL-2 melanoma
  TGI: > 100 µM
NCI-H226 lung
  TGI: > 100 µM
ACHN renal
  TGI: > 100 µM
HOP-92 NSCLC
  TGI: > 100 µM
SR leukemia
  TGI: > 100 µM
